Patent US20250255867A1 (Kadmon Corporation, LLC, priority 2022, published 2025)

Tests used:
patients with cGVHD = assay: Example 1: Global Severity Rating and participant self-reported symptom activity; format: in vivo, human
Method: Maximal Improvement from Baseline in Global Severity Rating (GSR) by Clinician-reported cGVHD Assessment. The GSR assessment was performed by asking the participants to rate their disease severity of cGVHD symptoms on a 0 to 10-point numeric rating scale, where score 0 indicated ‘not at all severe cGVHD symptoms’ and score 10 indicated ‘most severe cGVHD symptoms possible’. The response was defined using the scores from 9 organs: skin, eyes, mouth, esophagus, upper gastrointestinal (GI) track, lower GI tract, liver, lungs, and joints and fascia plus GSR. End of treatment (EOT) visit was performed within 3 days after the participant's last dose of study drug. Baseline value was defined as valid and last non-missing value obtained within 28 days prior to participant receiving first study medication. […] Analysis was performed on mITT population.
Number of Participants With Maximal Improvement From Baseline in Symptom Activity by cGVHD Activity Assessment Participant Self-Report. cGVHD symptom severity was self-reported by participants. Participants were asked to rate their disease symptom severity over the last week on the following questions: skin itching at its worst, moth dryness at its worst, mouth pain at its worst, mouth sensitivity at its worst, main compliant on eyes, symptom severity on eyes. The severity rating was done on a 0 to 10-point numeric rating scare, where score 0 indicated ‘not at all severe cGVHD symptoms’ and score 10 indicated ‘most severe cGVHD symptoms possible’. EOT visit was performed within 3 days after the participant's last dose of study drug. Baseline value was defined as valid and last non-missing value obtained within 28 days prior to participant receiving first study medication. […] Analysis was performed on mITT population.

[1] = Example 3: respiratory infections and overall survival; format: in vivo
Text: The median age at enrollment was 42.5 years (range, 26-77). Allogeneic HCT was predominantly performed with myeloablative conditioning (n=44, 75%) and peripheral blood stem cells (n=54, 92%) from an HLA-matched donor (n=53, 90%). The median time from cGVHD diagnosis to enrollment was 22 months (range, 1-161). […] Most subjects (n=39, 66%) had at least 4 organs involved at enrollment. The median number of prior lines of systemic therapy was 3 (range, 1-6). Overall cGVHD response to the line of systemic therapy prior to enrollment was partial response (n=12, 20%), stable disease (n=25, 42%), progressive disease (n=12, 20%) or unknown (n=10, 17%). […] At the time of analysis, 16 subjects remained on therapy. […] Thirty-one subjects (53%) experienced at least 1 respiratory infection (any grade) while on treatment, with 11 subjects experiencing 32 episodes. These infections were categorized as upper respiratory infections (n=33) or pneumonia (n=13). […] With a median follow-up among survivors of 27 months (range, 1.8-55), the 2-year overall survival is 82% (95% CI: 70, 90).

CC(C)NC(=O)COc1cccc(-c2nc(Nc3ccc4[nH]ncc4c3)c3ccccc3n2)c1 [Belumosudil, 2-{3-[4-(1H-indazol-5-ylamino)-2-quinazolinyl]phenoxy}-N-(propan-2-yl) acetamide]
3 (14%) participants: Maximal improvement from baseline in GSR of 0 (patients with cGVHD; Cohort 3 400 mg QD) | Maximal improvement from baseline in GSR of −4 (patients with cGVHD; Cohort 3 400 mg QD)
2 participants: Maximal improvement in self-reported symptom activity of −1 (patients with cGVHD; Cohort 1 200 mg QD) | Maximal improvement in self-reported symptom activity of −2 (patients with cGVHD; Cohort 1 200 mg QD) | Maximal improvement in self-reported symptom activity of −3 (patients with cGVHD; Cohort 1 200 mg QD) | Maximal improvement in self-reported symptom activity of −4 (patients with cGVHD; Cohort 1 200 mg QD) | Maximal improvement in self-reported symptom activity of −5 (patients with cGVHD; Cohort 1 200 mg QD) | Maximal improvement in self-reported symptom activity of −1 (patients with cGVHD; Cohort 2 200 mg BID) | Maximal improvement in self-reported symptom activity of −3 (patients with cGVHD; Cohort 2 200 mg BID) | Maximal improvement in self-reported symptom activity of −4 (patients with cGVHD; Cohort 2 200 mg BID) | Maximal improvement in self-reported symptom activity of −7 (patients with cGVHD; Cohort 2 200 mg BID) | Maximal improvement in self-reported symptom activity of 2 (patients with cGVHD; Cohort 3 400 mg QD) | Maximal improvement in self-reported symptom activity of −1 (patients with cGVHD; Cohort 3 400 mg QD) | Maximal improvement in self-reported symptom activity of −2 (patients with cGVHD; Cohort 3 400 mg QD) | Maximal improvement in self-reported symptom activity of −3 (patients with cGVHD; Cohort 3 400 mg QD) | Maximal improvement in self-reported symptom activity of −5 (patients with cGVHD; Cohort 3 400 mg QD)
1 (5%) participants: Maximal improvement from baseline in GSR of 1 (patients with cGVHD; Cohort 3 400 mg QD) | Maximal improvement from baseline in GSR of −3 (patients with cGVHD; Cohort 3 400 mg QD)
2 (12%) participants: Maximal improvement from baseline in GSR of −2 (patients with cGVHD; Cohort 1 200 mg QD) | Maximal improvement from baseline in GSR of −4 (patients with cGVHD; Cohort 1 200 mg QD) | Maximal improvement from baseline in GSR of −5 (patients with cGVHD; Cohort 1 200 mg QD)
5 (29%) participants: Maximal improvement from baseline in GSR of 0 (patients with cGVHD; Cohort 1 200 mg QD)
2 (13%) participants: Maximal improvement from baseline in GSR of −1 (patients with cGVHD; Cohort 2 200 mg BID) | Maximal improvement from baseline in GSR of −5 (patients with cGVHD; Cohort 2 200 mg BID) | Maximal improvement from baseline in GSR of −6 (patients with cGVHD; Cohort 2 200 mg BID)
1 participants: Maximal improvement in self-reported symptom activity of 0 (patients with cGVHD; Cohort 1 200 mg QD) | Maximal improvement in self-reported symptom activity of 4 (patients with cGVHD; Cohort 1 200 mg QD) | Maximal improvement in self-reported symptom activity of 0 (patients with cGVHD; Cohort 2 200 mg BID) | Maximal improvement in self-reported symptom activity of 2 (patients with cGVHD; Cohort 2 200 mg BID) | Maximal improvement in self-reported symptom activity of −6 (patients with cGVHD; Cohort 2 200 mg BID) | Maximal improvement in self-reported symptom activity of 1 (patients with cGVHD; Cohort 3 400 mg QD) | Maximal improvement in self-reported symptom activity of −4 (patients with cGVHD; Cohort 3 400 mg QD) | Maximal improvement in self-reported symptom activity of −8 (patients with cGVHD; Cohort 3 400 mg QD)
53%: Subjects with at least 1 respiratory infection (any grade) on treatment ([1]; 59 BOS subjects)
4 participants: Maximal improvement in self-reported symptom activity of −6 (patients with cGVHD; Cohort 3 400 mg QD)
3 participants: Maximal improvement in self-reported symptom activity of −7 (patients with cGVHD; Cohort 1 200 mg QD) | Maximal improvement in self-reported symptom activity of −2 (patients with cGVHD; Cohort 2 200 mg BID)
2 (10%) participants: Maximal improvement from baseline in GSR of −7 (patients with cGVHD; Cohort 3 400 mg QD)
0 (0%) participants: Maximal improvement from baseline in GSR of 1 (patients with cGVHD; Cohort 1 200 mg QD) | Maximal improvement from baseline in GSR of 3 (patients with cGVHD; Cohort 1 200 mg QD) | Maximal improvement from baseline in GSR of −6 (patients with cGVHD; Cohort 1 200 mg QD) | Maximal improvement from baseline in GSR of −7 (patients with cGVHD; Cohort 1 200 mg QD) | Maximal improvement from baseline in GSR of −3 (patients with cGVHD; Cohort 2 200 mg BID) | Maximal improvement from baseline in GSR of −4 (patients with cGVHD; Cohort 2 200 mg BID) | Maximal improvement from baseline in GSR of −7 (patients with cGVHD; Cohort 2 200 mg BID) | Maximal improvement from baseline in GSR of 3 (patients with cGVHD; Cohort 3 400 mg QD) | Maximal improvement from baseline in GSR of −5 (patients with cGVHD; Cohort 3 400 mg QD) | Maximal improvement from baseline in GSR of −6 (patients with cGVHD; Cohort 3 400 mg QD)
0 participants: Maximal improvement in self-reported symptom activity of 1 (patients with cGVHD; Cohort 1 200 mg QD) | Maximal improvement in self-reported symptom activity of 2 (patients with cGVHD; Cohort 1 200 mg QD) | Maximal improvement in self-reported symptom activity of −6 (patients with cGVHD; Cohort 1 200 mg QD) | Maximal improvement in self-reported symptom activity of −8 (patients with cGVHD; Cohort 1 200 mg QD) | Maximal improvement in self-reported symptom activity of 1 (patients with cGVHD; Cohort 2 200 mg BID) | Maximal improvement in self-reported symptom activity of 4 (patients with cGVHD; Cohort 2 200 mg BID) | Maximal improvement in self-reported symptom activity of −5 (patients with cGVHD; Cohort 2 200 mg BID) | Maximal improvement in self-reported symptom activity of −8 (patients with cGVHD; Cohort 2 200 mg BID) | Maximal improvement in self-reported symptom activity of 0 (patients with cGVHD; Cohort 3 400 mg QD) | Maximal improvement in self-reported symptom activity of 4 (patients with cGVHD; Cohort 3 400 mg QD) | Maximal improvement in self-reported symptom activity of −7 (patients with cGVHD; Cohort 3 400 mg QD)
4 (19%) participants: Maximal improvement from baseline in GSR of −1 (patients with cGVHD; Cohort 3 400 mg QD) | Maximal improvement from baseline in GSR of −2 (patients with cGVHD; Cohort 3 400 mg QD)
4 (25%) participants: Maximal improvement from baseline in GSR of 0 (patients with cGVHD; Cohort 2 200 mg BID) | Maximal improvement from baseline in GSR of −2 (patients with cGVHD; Cohort 2 200 mg BID)
1 (6%) participants: Maximal improvement from baseline in GSR of −1 (patients with cGVHD; Cohort 1 200 mg QD) | Maximal improvement from baseline in GSR of 1 (patients with cGVHD; Cohort 2 200 mg BID) | Maximal improvement from baseline in GSR of 3 (patients with cGVHD; Cohort 2 200 mg BID)
82%: 2-year overall survival ([1]; 95% CI: 70, 90)
